Experimental data published in patent US6737383B1, “Herbicidal oxadiazolidines” (priority 1999, dated 2004).

Assays:
Settings in all cases: Preemergence
purple nutsedge = test: Test B pre/postemergence purple nutsedge; type: in vivo, Cyperus rotundus
How it was run: (§1)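 Response is a visual 0-to-10 score relative to untreated plants, where 0 means no effect and 10 means complete control, taken twelve to sixteen days after application. Treatments went onto soil at planting and onto foliage of 1- to 4-leaf plants, using a surfactant-containing non-phytotoxic solvent.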

pigweed = test: Test B pre/postemergence pigweed; type: in vivo, Amaranthus retroflexus
How it was run: as §1

bedstraw = test: Test B pre/postemergence bedstraw; type: in vivo, Galium aparine
How it was run: as §1

soybean = test: Test B pre/postemergence soybean; type: in vivo, Glycine max
How it was run: as §1

sugar beet = test: Test B pre/postemergence sugar beet; type: in vivo, Beta vulgaris
How it was run: as §1

cocklebur = test: Test B pre/postemergence cocklebur; type: in vivo, Xanthium strumarium
How it was run: as §1

wheat = test: Test B pre/postemergence wheat; type: in vivo, Triticum aestivum
How it was run: as §1

blackgrass = test: Test B pre/postemergence blackgrass; type: in vivo, Alopecurus myosuroides
How it was run: as §1

corn = test: Test B pre/postemergence corn; type: in vivo, Zea mays
Excerpt: (§2) Seeds of bedstraw (Galium aparine), blackgrass (Alopecurus myosuroides), surinam grass (Brachiaria decumbens), cocklebur (Xanthium strumarium), corn (Zea mays), crabgrass (Digitaria sanguinalis), giant foxtail (Setaria faberii), morningglory (Ipomoea hederacea), pigweed (Amaranthus retroflexus), rape (Brassica napus), soybean (Glycine max), sugar beet (Beta vulgaris), velvetleaf (Abutilon theophrasti), wheat (Triticum aestivum), wild oat (Avena fatua) and purple nutsedge (Cyperus rotundus) tubers were planted and treated preemnergence with test chemicals formulated in a non-phytotoxic solvent mixture which included a surfactant.
(§3) At the same time, these crop and weed species were also treated with postemergence applications of test chemicals formulated in the same manner. Plants ranged in height from 2 to 18 cm (1- to 4-leaf stage) for postemergence treatments. Plant species in the flood test consisted of rice (Oryza sativa), smallflower flatsedge (Cyperus difformis), duck salad (Heteranthera limosa) and bamyardgrass (Echinochloa crus-galli) grown to the 2-leaf stage for testing. Treated plants and controls were maintained in a greenhouse for twelve to sixteen days, after which all species were compared to controls and visually evaluated. Plant response ratings, summarized in Table B, are based on a scale of 0 to 10 where 0 is no effect and 10 is complete control. A dash (−) response means no test result.

giant foxtail = test: Test B pre/postemergence giant foxtail; type: in vivo, Setaria faberii
How it was run: as §1

surinam grass = test: Test B pre/postemergence surinam grass; type: in vivo, Brachiaria decumbens
Excerpt: as §2, §3

crabgrass = test: Test B pre/postemergence crabgrass; type: in vivo, Digitaria sanguinalis
How it was run: as §1

velvetleaf = test: Test B pre/postemergence velvetleaf; type: in vivo, Abutilon theophrasti
How it was run: as §1

morningglory = test: Test B pre/postemergence morningglory; type: in vivo, Ipomoea hederacea
Excerpt: as §2, §3

rape = test: Test B pre/postemergence rape; type: in vivo, Brassica napus
How it was run: as §1

wild oat = test: Test B pre/postemergence wild oat; type: in vivo, Avena fatua
How it was run: as §1

[1] = Rate 62 g/ha, scale of 0 to 10 where 0 is no effect and 10 is complete control
[2] = Rate 250 g/ha, scale 0 (no effect) to 10 (complete control)
[3] = Rate 500 g/ha, scale 0 to 10 (0 no effect, 10 complete control)
[4] = Rate 125 g/ha, scale of 0 to 10 where 0 is no effect and 10 is complete control

CC(C)N(C(=O)n1oc(=O)n(C(C)C2CCC2)c1=O)c1ccc(F)cc1 (centres unmarked) [Compound 718]
Nutsedge plant response rating (purple nutsedge; [1]): 0
Nutsedge plant response rating (purple nutsedge; [2]): 0
Nutsedge plant response rating (purple nutsedge; [3]): 0
Redroot pigweed plant response rating (pigweed; [1]): 0
Plant response rating, Redroot pigweed (pigweed; [4]): 4
Redroot pigweed plant response rating (pigweed; [2]): 6
Redroot pigweed plant response rating (pigweed; [3]): 8
Bedstraw plant response rating (bedstraw; [1]): 0
Plant response rating, Bedstraw (bedstraw; [4]): 0
Bedstraw plant response rating (bedstraw; [2]): 0
Bedstraw plant response rating (bedstraw; [3]): 0
Soybean plant response rating (soybean; [1]): 0
Plant response rating, Soybean (soybean; [4]): 0
Soybean plant response rating (soybean; [2]): 0
Soybean plant response rating (soybean; [3]): 0
Sugarbeets plant response rating (sugar beet; [1]): 0
Plant response rating, Sugarbeets (sugar beet; [4]): 0
Sugarbeets plant response rating (sugar beet; [2]): 2
Sugarbeets plant response rating (sugar beet; [3]): 2
Cocklebur plant response rating (cocklebur; [1]): 0
Plant response rating, Cocklebur (cocklebur; [4]): 0
Cocklebur plant response rating (cocklebur; [2]): 0
Cocklebur plant response rating (cocklebur; [3]): 0
Wheat plant response rating (wheat; [1]): 0
Plant response rating, Wheat (wheat; [4]): 0
Wheat plant response rating (wheat; [2]): 0
Wheat plant response rating (wheat; [3]): 2
Blackgrass plant response rating (blackgrass; [1]): 8
Plant response rating, Blackgrass (blackgrass; [4]): 9
Blackgrass plant response rating (blackgrass; [2]): 9
Blackgrass plant response rating (blackgrass; [3]): 10
Corn plant response rating (corn; [1]): 0
Plant response rating, Corn (corn; [4]): 0
Corn plant response rating (corn; [2]): 0
Corn plant response rating (corn; [3]): 3
Giant foxtail plant response rating (giant foxtail; [1]): 10
Plant response rating, Giant foxtail (giant foxtail; [4]): 10
Giant foxtail plant response rating (giant foxtail; [2]): 10
Giant foxtail plant response rating (giant foxtail; [3]): 10
B. signalgrass plant response rating (surinam grass; [1]): 0
Plant response rating, B. signalgrass (surinam grass; [4]): 2
B. signalgrass plant response rating (surinam grass; [2]): 7
B. signalgrass plant response rating (surinam grass; [3]): 9
Crabgrass plant response rating (crabgrass; [1]): 9
Plant response rating, Crabgrass (crabgrass; [4]): 10
Crabgrass plant response rating (crabgrass; [2]): 10
Crabgrass plant response rating (crabgrass; [3]): 10
Velvetleaf plant response rating (velvetleaf; [1]): 0
Plant response rating, Velvetleaf (velvetleaf; [4]): 0
Velvetleaf plant response rating (velvetleaf; [2]): 0
Velvetleaf plant response rating (velvetleaf; [3]): 0
Morningglory plant response rating (morningglory; [1]): 0
Plant response rating, Morningglory (morningglory; [4]): 0
Morningglory plant response rating (morningglory; [2]): 0
Morningglory plant response rating (morningglory; [3]): 0
Rape plant response rating (rape; [1]): 0
Plant response rating, Rape (rape; [4]): 0
Rape plant response rating (rape; [2]): 2
Rape plant response rating (rape; [3]): 3
Wild oats plant response rating (wild oat; [1]): 2
Plant response rating, Wild oats (wild oat; [4]): 2
Wild oats plant response rating (wild oat; [3]): 8
